According to paper PMC5018819 (Scientific Reports, 2016):
Where two headings read alike, the source gives them in different places.

Key:
P. falciparum 3D7 [1] = experiment: ES-MS and ES-MS-MS lipidomic analysis of treated parasites; assay type: cell-based, Plasmodium falciparum; conditions: EC90 for 3 h; for effect on level of PC species: parents of 184 m/z spectra; for effect on endogenous PE species (in words): quantitative lipidomic analysis
Protocol: After washing, P. falciparum trophozoites were cultured for 18h without inhibitors, collected, treated with saponin to release the parasites from the red blood cells, and washed twice with PBS prior to Bligh & Dyer lipid extraction. Briefly, 5 × 10^8 parasite cells were dissolved in 375 μl 1:2 (v/v) chloroform:methanol and vigorously vortexed for 15 min. 125 μl of chloroform were added and 500 pmols of 1,2-dimyristoyl-sn-glycero-3-phosphocholine and 1,2-dipalmitoyl-sn-glycero-3-phosphoethanolamine were included in each sample as internal controls. 125 μl of water were added to the sample, vortexed and centrifuged at ×1000 g (RT) for 5 min to make the sample biphasic. Lower organic phase was collected and upper (aqueous) phase was re-extracted twice with 125 μls of chloroform. Lipid extracts were pooled, dried under nitrogen and stored at 4 °C for ESI-MS/MS analysis.
Lipid extracts, were dissolved in 15 μl of choloroform:methanol (1:2) and 15 μl of acetonitrile:iso-propanol:water (6:7:2) and analysed with a Absceix 4000 QTrap, a triple quadrupole mass spectrometer equipped with a nanoelectrospray source. Samples were delivered using a Nanomate interface in direct infusion mode (~125 nl/min). The lipid extracts were analysed in both positive and negative ion modes using a capillary voltage of 1.25 kV. MS/MS scanning (daughter, precursor and neutral loss scans) were performed using nitrogen as the collision gas with collision energies between 35–90 V. Each spectrum encompasses at least 50 repetitive scans. Tandem mass spectra (MS/MS) were obtained with collision energies between 35–90 V. Assignment of phospholipid and neutral lipid species is based upon a combination of survey, daughter, precursor and neutral loss scans, as well previous assignments. The identity of phospholipid peaks was verified using the LIPID MAPS: Nature Lipidomics Gateway (www.lipidmaps.org).

P. falciparum 3D7 [2] = experiment: microscopy of tightly synchronized asexual blood stage culture; assay type: cell-based, Plasmodium falciparum; conditions: EC90; synchronized ring stage parasites 6–12 hours post invasion
Protocol: P. falciparum 3D7 was cultured according to standard methods, and a 6 hours window was achieved by a combination of Percoll and sorbitol synchronizations. Briefly, schizonts and late trophozoites were isolated from earlier stages according to their density by centrifugation on a continuous gradient of 60% Percoll. The resulting schizonts were allowed to invade uninfected red blood cells for 6 hours and newly infected red blood cells were subjected to a 5% sorbitol treatment for 10 minutes at 37 °C. […] Thin blood smears were Giemsa stained every 6 hours until an entire intraerythrocytic cycle was completed.

PfEK = molecular target: T1, PfEK (Plasmodium falciparum, UniProt Q8IIB7); experiment: IC50 determination, spectrophotometric EK enzyme assay; assay type: biochemical, P. falciparum; conditions: for IC50: Etn as substrate, 0.5 mM each substrate
T1 sequence (Q8IIB7 2-420): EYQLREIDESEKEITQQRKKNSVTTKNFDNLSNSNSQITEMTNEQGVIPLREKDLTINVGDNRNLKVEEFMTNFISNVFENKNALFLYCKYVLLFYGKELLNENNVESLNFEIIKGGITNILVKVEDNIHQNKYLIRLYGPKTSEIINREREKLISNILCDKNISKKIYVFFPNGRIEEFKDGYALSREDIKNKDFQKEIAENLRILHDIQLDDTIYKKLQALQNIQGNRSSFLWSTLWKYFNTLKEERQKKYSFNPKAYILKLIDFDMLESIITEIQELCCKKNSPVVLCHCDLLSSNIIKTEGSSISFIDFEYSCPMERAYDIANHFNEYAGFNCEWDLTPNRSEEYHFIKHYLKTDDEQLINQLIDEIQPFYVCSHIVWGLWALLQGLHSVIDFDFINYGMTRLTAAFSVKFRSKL
Protocol: (§1) A continuous spectrophotometric 96-well plate assay was established for CK and EK activity based on an assay described. […] The reaction was initiated by addition of enzyme or substrate, as appropriate, and the rate of reaction was monitored by following the decrease in absorbance at 341 nm for 10 min at room temperature using a Thermo Multiska spectrophotometer. Experiments were carried out to ensure that coupling enzymes were not rate-limiting under any of the conditions used and control experiments lacking substrates and/or enzyme were carried out to correct for any background rate.
The enzyme was pre-incubated for 5 min with varying concentrations of inhibitor prior to reaction being started by addition of 0.5 mM each substrate. The IC50 values were estimated using Grafit 5 (Erithacus Software Ltd).

HsCKα1 = molecular target: T2, HsCKα1 (Homo sapiens, UniProt P35790); experiment: Ki determination and mode of inhibition; assay type: biochemical; conditions: for α, HsCKα1, ATP / α, HsCKα1, Cho: alpha factor of mixed inhibition
T2 construct: made in house
Protocol: as §1
(§2) Activity was measured at 3–4 different concentrations of inhibitor and a fixed concentration of one substrate (as specified in the standard assay) while the second substrate was varied. GraphPad Prism 6 (GraphPad Software Inc.) was used to fit data to different inhibition models with the best fit being determined by Aike’s Informative Criteria. Kis were estimated from the best-fit model and results were reinforced by linear re-plots of the data (Lineweaver Burke, Dixon, s/v against I)[38].

PfCK = molecular target: T3, PfCK (Plasmodium falciparum, UniProt Q8IM71); experiment: Ki determination and mode of inhibition; assay type: biochemical
T3 construct: made in house
T3 sequence (Q8IM71 1-440): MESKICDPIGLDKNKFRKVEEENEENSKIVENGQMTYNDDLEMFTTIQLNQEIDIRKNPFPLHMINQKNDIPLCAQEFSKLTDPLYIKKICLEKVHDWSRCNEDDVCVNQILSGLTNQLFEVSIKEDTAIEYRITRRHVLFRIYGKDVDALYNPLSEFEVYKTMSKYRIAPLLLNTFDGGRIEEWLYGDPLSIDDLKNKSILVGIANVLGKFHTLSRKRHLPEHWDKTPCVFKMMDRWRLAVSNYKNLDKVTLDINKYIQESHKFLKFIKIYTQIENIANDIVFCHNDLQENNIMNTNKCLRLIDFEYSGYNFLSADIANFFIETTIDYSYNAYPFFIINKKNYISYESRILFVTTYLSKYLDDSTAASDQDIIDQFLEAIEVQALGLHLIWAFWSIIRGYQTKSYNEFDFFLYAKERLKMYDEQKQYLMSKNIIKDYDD
Protocol: as §1, §2

[3] = ATP as variable substrate, read-out: Ki, HsCKα1, ATP
[4] = read-out: Ki, HsCKα1, Cho, Cho as variable substrate
[5] = read-out: Ki, HsCKα1, with respect to Cho, mixed inhibition, approximate value
[6] = ATP as variable substrate, read-out: Ki, PfCK, ATP
[7] = Etn as variable substrate, read-out: Ki, PfCK, Etn
[8] = alpha factor of mixed inhibition, Cho as variable substrate
[9] = competitive inhibition, approximate value, read-out: Ki, PfCK, with respect to Etn
[10] = read-out: Ki, PfCK, Cho, Cho as variable substrate
[11] = read-out: Ki, PfCK, against Cho, mixed inhibition, approximate value

T2 sequence (P35790 whole entry): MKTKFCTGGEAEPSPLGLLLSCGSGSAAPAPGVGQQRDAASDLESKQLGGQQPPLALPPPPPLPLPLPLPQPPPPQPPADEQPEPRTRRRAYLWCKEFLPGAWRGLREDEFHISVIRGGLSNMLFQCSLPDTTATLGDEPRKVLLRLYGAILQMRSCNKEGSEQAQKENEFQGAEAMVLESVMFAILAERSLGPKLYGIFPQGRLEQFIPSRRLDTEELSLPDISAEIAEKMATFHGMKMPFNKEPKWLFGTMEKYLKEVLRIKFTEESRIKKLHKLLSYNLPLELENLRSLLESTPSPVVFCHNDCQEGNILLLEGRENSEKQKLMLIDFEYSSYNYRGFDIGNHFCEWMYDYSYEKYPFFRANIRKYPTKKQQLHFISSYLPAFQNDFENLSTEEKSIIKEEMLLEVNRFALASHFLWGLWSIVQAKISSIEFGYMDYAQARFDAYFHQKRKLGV

## CN(C)c1cc[n+](Cc2ccc(CCCCc3ccc(C[n+]4ccc(N5CCCC5)cc4)cc3)cc2)cc1.[Br-].[Br-] [BR25]
P. falciparum 3D7 [1]
  effect on level of PC species: do not affect
  effect on endogenous PE species (in words): almost complete loss
P. falciparum 3D7 [2]
  effect on parasite development: arrest of parasite development
PfEK
  inhibition towards PfEK (in words): neither BR23 nor BR25 showed any inhibition
  IC50: > 500 µM
HsCKα1; ATP as variable substrate
  mode of inhibition, HsCKα1, ATP: Mixed
  α, HsCKα1, ATP: 0.49
HsCKα1; [3]
  Ki: 4.1 µM
HsCKα1; Cho as variable substrate
  mode of inhibition, HsCKα1, Cho: Mixed
  α, HsCKα1, Cho: 139
HsCKα1; [4]
  Ki: 0.1 µM
HsCKα1; [5]
  Ki: ~0.1 µM
PfCK; ATP as variable substrate
  mode of inhibition, PfCK, ATP: Mixed
PfCK; [6]
  Ki: 65.5 µM
PfCK; Cho as variable substrate
  mode of inhibition, PfCK, Cho: Mixed
PfCK; Etn as variable substrate
  mode of inhibition, PfCK, Etn: Competitive
PfCK; [7]
  Ki: 4 µM
PfCK; alpha factor of mixed inhibition, ATP as variable substrate
  α, PfCK, ATP: 2.37
PfCK; [8]
  α, PfCK, Cho: 2.025
PfCK; [9]
  Ki: ~4 µM
PfCK; [10]
  Ki: 31.9 µM
PfCK; [11]
  Ki: ~35 µM

## CN(C)c1cc[n+](Cc2ccc(-c3ccc(C[n+]4ccc(N5CCCC5)cc4)cc3)cc2)cc1.[Br-].[Br-] [BR23]
P. falciparum 3D7 [1]; ES-MS-MS parents of 196 m/z, internal PE standard
  reduction of endogenous PE species: > 90%
P. falciparum 3D7 [1]
  effect on level of PC species: do not affect
  effect on endogenous PE species (in words): significant reduction
P. falciparum 3D7 [2]
  effect on parasite development: arrest of parasite development
PfEK
  inhibition towards PfEK (in words): neither BR23 nor BR25 showed any inhibition
  IC50: > 500 µM
HsCKα1; ATP as variable substrate
  mode of inhibition, HsCKα1, ATP: Mixed
  α, HsCKα1, ATP: 0.73
HsCKα1; [3]
  Ki: 3.7 µM
HsCKα1; Cho as variable substrate
  mode of inhibition, HsCKα1, Cho: Mixed
  α, HsCKα1, Cho: 59
HsCKα1; mixed inhibition, approximate value, read-out: Ki, HsCKα1, with respect to ATP
  Ki: ~4 µM
HsCKα1; [4]
  Ki: 0.114 µM
HsCKα1; [5]
  Ki: ~0.1 µM
PfCK; ATP as variable substrate
  mode of inhibition, PfCK, ATP: Competitive
PfCK; [6]
  Ki: 116 µM
PfCK; Cho as variable substrate
  mode of inhibition, PfCK, Cho: Mixed
PfCK; Etn as variable substrate
  mode of inhibition, PfCK, Etn: Competitive
PfCK; [7]
  Ki: 4.1 µM
PfCK; [8]
  α, PfCK, Cho: 3.915
PfCK; [9]
  Ki: ~4 µM
PfCK; [10]
  Ki: 38.2 µM
PfCK; [11]
  Ki: ~35 µM
